This is an account of results in patent publication US8648094B2, “IAP BIR domain binding compounds” (Pharmascience, Inc., priority 2006, dated 2014).

One assay relates to SKOV-3 cells. In words: Survival MTT assay. The note with it: Homo sapiens, SK-OV-3, 72 hours. Format: cell-based. The method, then:
(§1) One day prior the treatment with compound, 2000 to 4000 cells per well were plated in a tissue culture treated 96 well format dish with 100 uL of media and incubated at 37° C., 5% CO2. On the day of compound treatment, compounds were diluted with cell culture media to a working stock concentration of 2×. 100 ul of diluted compound were then added to each well. The treated plate was incubated for 72 hours at 37° C., 5% CO2. Upon incubation, the cell viability was assessed as follows; 20 uL of MTT reagent (5 mg/mL) were added per well to cell plate. The plate was incubated for 2 hrs at 37° C. in presence of 5% CO2. The supernatant was then removed from the plate and 100 uL of isopropanol was added. The absorbance was measured in a TECAN spectrophotometer at 570 nm. The percentage of viability was expressed in percentage of the signal obtained with non treated cells.

The target of the next assay is T1, c-IAP1 (Homo sapiens, UniProt Q13490).
T1 construct: endogenous in cells; host or cells: HCT116
T1 sequence (Q13490 whole entry): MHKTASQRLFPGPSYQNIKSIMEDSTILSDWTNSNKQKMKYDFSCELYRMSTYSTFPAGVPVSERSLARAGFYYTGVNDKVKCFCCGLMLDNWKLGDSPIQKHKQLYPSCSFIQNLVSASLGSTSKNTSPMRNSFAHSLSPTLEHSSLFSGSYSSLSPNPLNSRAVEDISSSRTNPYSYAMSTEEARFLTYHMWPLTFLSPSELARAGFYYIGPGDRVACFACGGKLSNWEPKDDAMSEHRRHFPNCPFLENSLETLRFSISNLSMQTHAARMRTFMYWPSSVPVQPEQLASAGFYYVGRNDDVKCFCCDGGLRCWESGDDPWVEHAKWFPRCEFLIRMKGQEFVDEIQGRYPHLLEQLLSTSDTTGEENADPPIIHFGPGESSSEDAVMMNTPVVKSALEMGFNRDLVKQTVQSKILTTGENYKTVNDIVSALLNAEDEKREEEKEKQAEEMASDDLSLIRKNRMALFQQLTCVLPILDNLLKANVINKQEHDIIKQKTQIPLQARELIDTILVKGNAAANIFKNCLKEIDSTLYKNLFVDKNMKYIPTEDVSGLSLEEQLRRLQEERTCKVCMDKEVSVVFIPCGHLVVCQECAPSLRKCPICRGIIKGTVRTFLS
Description: Detection of c-IAP1 in cells by western blotting. Format: cell-based. The note with it: HCT116 cells, overnight treatment. How it is done: Detection of cell expressed XIAP and PARP were done by western blotting. Cells were plated at 300 000 cells/well in a 60 mm wells (6 wells plate dish). The next day the cells were treated with selected compound at the indicated concentration. […] The resulting pellet was rinsed twice with cold TBS. The final washed pellet of cells was the lysed with 250 ul Lysis buffer (NP-40, glycerol, 1% of a protease inhibitor cocktail (Sigma)), placed at 4° C. for 25 min with gentle shaking. The cells extract was centrifuged at 4° C. for 10 min at 10 000 rpm. Both the supernatant and the pellet were kept for western blotting analysis as described below. From the supernatant, the protein content was evaluated and about 50 ug of protein was fractionated onto a 10% SDS-PAGE. Pellets were washed with the lysis buffer and re-suspend into 50 ul of Lamelli buffer 1×, boiled and fractionated on SDS-PAGE. Upon electrophoresis each gel was electro-transferred onto a nitrocellulose membrane at 0.6 A for 2 hours. Membrane non-specific sites were blocked for 1 hours with 5% Skim milk in TBST (TBS containing 0.1% (v/v) Tween-20) at RT. For protein immuno-detection, membranes were incubated overnight with primary antibodies raised against various IAPs or caspase-3 or caspase-9 primary antibodies were incubated at 4° C. with shaking at dilutions as follows:
Upon overnight incubation, the membranes received three washes of 15 min in TBST then were incubated for 1 hour at room temperature in the presence of a secondary antibody coupled with HRP-enzyme (Chemicon) and diluted at 1/5 000. Upon incubation each membrane were washed three times with TBST and the immunoreactive bands were detected by addition of a luminescent substrate (ECL kit Amersham) and capture of signal on a X-RAY film for various time of exposure.
(In general: Immunoblotting shows a protein as a band on a membrane.)

The next assay relates to selected cell lines. Description: Hollow fiber in vivo model. The note with it: compared to fibers from vehicle treated control mice. The method, then: At day 1, selected cell lines are cultured and the fiber filled at a cell density of about 40,000 cells/fiber. At the day of operation (day 4), three fibers are implanted sub-cutaneous into 28-35 Nu/Nu CD-1 male mice. On day 5, mice start to receive daily injection via sub-cutaneous route of control vehicle or vehicle containing the selected compound at the appropriate concentration and/or injection of cytotoxic agent via intra-peritoneal route. Upon 4 days of consecutive treatments, the animals are sacrificed, each fiber is removed and the metabolic viability of the remaining cells determined by MTT assay. Efficacy of the compound is define as the difference between the vehicle-treated animal and the animal treated with the compound alone or the compound given in combination of the cytotoxic agent

In the next assay the test system is MDA-MB-231 cells. Description: Survival MTT assay. Format: cell-based. The conditions noted are these: Homo sapiens, 72 hours, read-out: MDA-MB231 EC50. The method, then: as §1
On the technique in general: Tetrazolium assays rely on reduction of a dye to a coloured formazan, in cell work by metabolically active cells.

For a further assay, the system named is HCT116 colorectal cells. In words: Potentiation of TRAIL efficacy in survival assay. The note with it: 10 nM of compound. Format: cell-based, human. How it is done: Survival assays were preformed on the following transformed human cancer cell lines, MDA-MB-231, SKOV-3, H460, PC3, HCT-116, and SW480 cells. Cells were seeded in 96 well plates at a respective density of 5000 and 2000 cells per well and incubated at 37° C. in presence of 5% CO2 for 24 hours. Selected compounds were diluted into the media at various concentration ranging from 0.00001 uM up to 100 uM. Diluted compounds were added to the culture media. For the MDA-MB-231 SKOV3, H460, PC3, HCT-116, and SW480 cells, the compounds were added either alone or in presence of 1-3 ng/ml of TRAIL. After 48-72 hours cellular viability was evaluated by MTS based assays. A solution of [3-(4,5-dimethylthiazol-2-yl)-5-(3-carboxymethoxyphenyl)-2-(4-sulfophenyl)-2H-tetrazolium, inner salt; MTS] was added onto cells for a period of 1 to 4 hours. Upon incubation the amount of converted MTS was evaluated using a Tecan spectrophotometer set at 570 nm.

The next assay relates to A2780S ovarian cells. In words: Potentiation of TRAIL efficacy in survival assay. Format: cell-based. The note with it: 10 nM of compound.

Where only a bound is given, the exact number is not on record here.

By EC50 is commonly meant the concentration needed to bring the measured effect to its halfway point. `CN[C@@H](C)C(=O)N[C@H](C(=O)N1CCC[C@H]1CN(CCc1ccccc1)C(=O)CCNC(=O)c1ccc(C(=O)NCCC(=O)N(CCc2ccccc2)C[C@@H]2CCCN2C(=O)[C@@H](NC(=O)[C@H](C)NC)C(C)(C)C)cc1)C(C)(C)C` [Compound 91]: the EC50 in the assay with SKOV-3 cells lay within 0.01 to 0.025 µM. Further, at c-IAP1, the c-IAP1 levels result is given as “reduced”.

In the case of `CN[C@@H](C)C(=O)N[C@H](C(=O)N1CCC[C@H]1CN(CCc1ccccc1)C(=O)c1ccc2cc(C(=O)N(CCc3ccccc3)C[C@@H]3CCCN3C(=O)[C@@H](NC(=O)[C@H](C)NC)C(C)(C)C)ccc2c1)C(C)(C)C` [Compound 56], in the assay on SKOV-3 cells, the EC50 is < 0.01 µM. Also, the “decrease in MTT signal in fibers from treated mice” value in the assay on selected cell lines stood at 70%.

`CN[C@@H](C)C(=O)N[C@H](C(=O)N1CCC[C@H]1CN(CCc1ccccc1)C(=O)CNC(=O)c1cccc(C(=O)NCC(=O)N(CCc2ccccc2)C[C@@H]2CCCN2C(=O)[C@@H](NC(=O)[C@H](C)NC)C(C)(C)C)c1)C(C)(C)C` [Compound 44]: the EC50 with SKOV-3 cells is < 0.01 µM. The c-IAP1 levels entry on c-IAP1 is “reduced”.

Turning to `CN[C@@H](C)C(=O)N[C@H](C(=O)N1CCC[C@H]1CN(CCc1ccccc1)C(=O)CNC(=O)C(=O)NCC(=O)N(CCc1ccccc1)C[C@@H]1CCCN1C(=O)[C@@H](NC(=O)[C@H](C)NC)C(C)(C)C)C(C)(C)C` [Compound 31], the concentration giving a half-maximal response (EC50) in the assay with MDA-MB-231 cells and in the assay on SKOV-3 cells was < 0.01 µM in each case. Besides, the “potentiated TRAIL efficacy” value in the assay with HCT116 colorectal cells is given as “approximately 2 logs”. Further, the c-IAP1 levels entry at c-IAP1 was “reduced”. Moreover, the “decrease in MTT signal in fibers from treated mice” value in the assay with selected cell lines is 70%.

`CN[C@@H](C)C(=O)N[C@H](C(=O)N1CCC[C@H]1CN(C[C@H](C)c1ccccc1)C(=O)CCCCCCCCC(=O)N(C[C@@H]1CCCN1C(=O)[C@@H](NC(=O)[C@H](C)NC)C(C)(C)C)C[C@H](C)c1ccccc1)C(C)(C)C` [Compound 21]: the concentration for a half-maximal effect (EC50) in the assay on MDA-MB-231 cells and in the assay on SKOV-3 cells was < 0.01 µM throughout.

Regarding `CN[C@@H](C)C(=O)N[C@H](C(=O)N1CCC[C@H]1CN(CCc1ccccc1)C(=O)CNC(=O)c1ccc(C(=O)NCC(=O)N(CCc2ccccc2)C[C@@H]2CCCN2C(=O)[C@@H](NC(=O)[C@H](C)NC)C(C)(C)C)cc1)C(C)(C)C` [Compound 35], the EC50 in the assay with MDA-MB-231 cells and with SKOV-3 cells was < 0.01 µM throughout. The “potentiated TRAIL efficacy” value with A2780S ovarian cells is “approximately 2 logs”.

Turning to `CN[C@@H](C)C(=O)N[C@H](C(=O)N1CCC[C@H]1CN(CCCCc1ccccc1)C(=O)CCCCCCCCC(=O)N(CCCCc1ccccc1)C[C@@H]1CCCN1C(=O)[C@@H](NC(=O)[C@H](C)NC)C(C)(C)C)C(C)(C)C` [Compound 40], the c-IAP1 levels entry on c-IAP1 is recorded as “reduced”.

Regarding `CN[C@@H](C)C(=O)N[C@H](C(=O)N1CCC[C@H]1CN(CCc1ccc(C(F)(F)F)cc1)C(=O)CCCCCCCCC(=O)N(CCc1ccc(C(F)(F)F)cc1)C[C@@H]1CCCN1C(=O)[C@@H](NC(=O)[C@H](C)NC)C(C)(C)C)C(C)(C)C` [Compound 67], the c-IAP1 levels result on c-IAP1 is “reduced”.

Turning to `CN[C@@H](C)C(=O)N[C@H](C(=O)N1CCC[C@H]1CN(CCc1ccccc1)C(=O)c1ccc(C(=O)N(CCc2ccccc2)C[C@@H]2CCCN2C(=O)[C@@H](NC(=O)[C@H](C)NC)C(C)(C)C)s1)C(C)(C)C` [Compound 26], the concentration for a half-maximal effect (EC50) is < 0.01 µM in the assay on MDA-MB-231 cells and 0.01 to 0.025 µM with SKOV-3 cells.

For `CN[C@@H](C)C(=O)N[C@H](C(=O)N1CCC[C@H]1CN(CCc1ccccc1)C(=O)CNC(=O)c1ccc(-c2ccc(C(=O)NCC(=O)N(CCc3ccccc3)C[C@@H]3CCCN3C(=O)[C@@H](NC(=O)[C@H](C)NC)C(C)(C)C)cc2)cc1)C(C)(C)C` [Compound 45], the EC50 with SKOV-3 cells is < 0.01 µM. Further, on c-IAP1, the c-IAP1 levels result is listed as “reduced”.

For `CN[C@@H](C)C(=O)N[C@H](C(=O)N1CCC[C@H]1CN(CCc1ccccc1)C(=O)Nc1ccc(NC(=O)N(CCc2ccccc2)C[C@@H]2CCCN2C(=O)[C@@H](NC(=O)[C@H](C)NC)C(C)(C)C)cc1)C(C)(C)C` [Compound 20], the EC50 in the assay on MDA-MB-231 cells is < 0.01 µM; in the assay with SKOV-3 cells, 0.01 to 0.025 µM.

`CN[C@@H](C)C(=O)N[C@H](C(=O)N1CCC[C@H]1CN(CCc1ccc(F)cc1)C(=O)CCCCCCCCC(=O)N(CCc1ccc(F)cc1)C[C@@H]1CCCN1C(=O)[C@@H](NC(=O)[C@H](C)NC)C(C)(C)C)C(C)(C)C` [Compound 29]: the results for the half-maximal effective concentration (EC50) with MDA-MB-231 cells and in the assay on SKOV-3 cells were < 0.01 µM and 0.01 to 0.025 µM, respectively.

Take `CN[C@@H](C)C(=O)N[C@H](C(=O)N1CCC[C@H]1CN(Cc1cccc(C(F)(F)F)c1)C(=O)CCCCCCCCC(=O)N(Cc1cccc(C(F)(F)F)c1)C[C@@H]1CCCN1C(=O)[C@@H](NC(=O)[C@H](C)NC)C(C)(C)C)C(C)(C)C` [Compound 100]: the c-IAP1 levels result at c-IAP1 is given as “reduced”.

On to `CN[C@@H](C)C(=O)N[C@H](C(=O)N1CCC[C@H]1CN(CCc1ccccc1)C(=O)CN(C)Cc1ccc(CN(C)CC(=O)N(CCc2ccccc2)C[C@@H]2CCCN2C(=O)[C@@H](NC(=O)[C@H](C)NC)C(C)(C)C)cc1)C(C)(C)C` [Compound 43], for which the half-maximal effective concentration (EC50) in the assay with SKOV-3 cells lay within 0.01 to 0.025 µM.
